Assay results from patent US11986557B2, “Stealth nanoparticles” (HOWARD UNIVERSITY, priority 2018, dated 2024).

Key:
[1] = tested on: SKBR3; experiment: In vitro cytotoxicity studies, SKBR3; format: cell-based, human
Protocol: (§1) In vitro cytotoxicity studies were conducted to determine the cytotoxic effect of paclitaxel (as a free drug/not in nanoparticle), 17AAG (free drug), paclitaxel+17AAG combination (as free drugs), and paclitaxel+17AAG combination loaded nanoparticles on two human breast cancer cell lines, SKBR3 and MCF7.
(§2) In preparation of the drug combination treatment, one part of each drug was halved and combined, such that each drug in the combination treatment contained half the concentration of their single drug counterparts. This means that the paclitaxel concentration in the combination treatment is 50% of the paclitaxel (single drug) treatment. In other words, the ratio of the concentration in the single drug to its respective concentration in the combination is 2:1. Also, the drug concentration ratio within the combination (paclitaxel: 17AAG) was approximately 1:1.
(§3) For 5 days of assaying, three plates were treated for each day. The first was treated with paclitaxel solution (single drug) and paclitaxel/17AAG combination solution and second with 17AAG solution (single drug) and paclitaxel/17AAG combination solution. The last plate was treated with the combination drug loaded nanoparticle solution and paclitaxel/17AAG combination solution (free drug).

[2] = tested on: MCF7; experiment: In vitro cytotoxicity studies, MCF7; format: cell-based, human
Protocol: as §1, §2, §3

[3] = pH 5.0 versus pH 7.4; cited from earlier work

| Compound | Cytotoxic effect at low concentrations [1] | Cytotoxic effect at low concentrations [2] | Hydrolysis rate [3] |
| --- | --- | --- | --- |
| C=CCNC1=C2C[C@@H](C)C[C@H](OC)[C@H](O)[C@@H](C)/C=C(\C)[C@H](OC(N)=O)[C@@H](OC)/C=C\C=C(/C)C(=O)NC(=CC1=O)C2=O [Formulation 17AAG, 17 allylamino, 17 demethoxygeldanamycin] | did not show any significant cytotoxic effect | did not show any significant cytotoxic effect |  |
| C=C(C)C(=O)OCCOC(OCCOC(=O)C(=C)C)c1ccc(OC)cc1OC [di (2-methacryloyloxyethoxy)-[2,4-dimethoxyphenyl]methane] |  |  | hydrolyzes much faster at pH 5.0 than at pH 7.4 |
